Here are results for six compounds from patent publication US8563596B2, “Enantiomerically pure compounds for the treatment of proliferative disorders” (Piramal Enterprises Limited, priority 2006, dated 2013).

What is called IC50 is the point on the concentration scale where inhibition reaches its midpoint. Read a high IC50 as weaker potency in that assay. The term melting point denotes the temperature of the solid-liquid transition.

Where two headings read alike, the source gives them in different places.

One series has as its target T1, CDK4-cyclin D1 (Homo sapiens, UniProt P11802).
T1 construct: made in house; host or cells: Sf9 insect cells (baculovirus)
Nature of the series: CDK4/Cyclin D1 kinase assay (32P phosphorylation of GST-Rb, filter plate). Format: biochemical. As to conditions: 30 min at 30° C.; GST-Rb substrate. The source says: (§1) CDK4/Cyclin D1 Kinase Assay and CDK2/Cyclin E Kinase Assay
(§2) The assays measure phosphorylation of retinoblastoma protein (Rb) by CDK4 or CDK2 upon activation by cyclin D1 or cyclin E, respectively, through the transfer of (γ^32P)-phosphate from γ^32P-ATP in a 96-well filter plate assay.
(§3) CDK4 or CDK2 was co-expressed with cyclin D1 or cyclin E, respectively, by a baculovirus expression system in insect cells. For this, 1×10^7 Sf9 cells were coinfected with baculoviruses containing human CDK-4 or 2 and cyclin D1 or E genes and after 72 hours cells were lysed in 500 μl of a lysis buffer (50 mM HEPES (pH 7.5), 10 mM MgCl2, 1 mM DTT, 5 μg/ml of aprotinin, 5 μg/ml of leupeptin, 0.1 mM NaF, 0.2 mM phenylmethylsulfonyl fluoride (PMSF), and sodium orthovanadate. Centrifuged lysate was purified on a GST-sepharose column. Purity of the proteins was checked by SDS-PAGE followed by western blots using specific antibodies (Santacruz Biotec, USA) to CDK4 or CDK2.
(§4) GST-retinoblastoma (Rb) (aa 776-928) fusion protein is expressed in the bacteria E. coli and purified by GSH-Sepharose affinity chromatography. The GST-Rb bound to these beads served as the substrate in the assay.
(§5) Quantitation was by scintillation detection of (^32P)-GST-Rb in 96-well filter plates using Top Count scintillation 96-well counter (Packard, USA).
The CDK4 or CDK2 enzyme assay was run in 96-well format using Millipore ultiscreen filtration plates. All assay steps took place in a single filter plate (Unifilter plates, Packard, USA). The filtration wells were pre-wet with kinase buffer (100 μl/well) and the solution was then removed by the application of vacuum, with the filter plate on a vacuum manifold and the vacuum on. 50 μl of GST-Rb bound to GSH-Sepharose beads in kinase buffer (0.5 μg GST-Rb/50 μl) was added to each well and vacuum was applied to remove the buffer. […] The plate was counted in a Packard Top Count Scintillation Counter for 10 min. […]

Series [1] deals with HT-29 (Colon). Format: cell-based, human. The protocol: (§6) Exponentially growing cultures of […] human cancerous cell lines (Calu1 lung, A-549 lung, HT-29 colon, HL-60 Promyelocytic Leukemia, PC-3 Prostate, H-460 Lung, MDA-MB-231 Breast, MCF-7 Breast, HeLa Cervix, Colo-205 Colon, H9 Lymphoma (T Cells), U-937 Histiocytic Lymphoma (monocytes) and CaCO-2 Colon) obtained from NCCS, Pune, India were used. The in vitro cell proliferation (NCl, USA protocol) and cytotoxicity assays were carried out using standard procedures viz. ^3H-Thymidine uptake and MTS assay, respectively (For ^3H-Thymidine uptake: Cell Biology, A Laboratory Handbook, 1998, Vol 1 Ed Julio E. Celis, and For MTS assay: Promega Protocol, USA, 2000). In the ^3H-Thymidine uptake assay, cells were harvested after 72 hours onto GF/B unifilter plates (Packard, USA) using a Packard Filtermate Universal harvester and the plates were counted on a Packard TopCount 96-well liquid scintillation counter. The concentration of compound at which 50% of proliferative activity was inhibited (IC50) and the degree of toxicity of compound were calculated for representative compounds and their pharmaceutically acceptable salts described in the Examples.

The subject of series [2] is Calu1 (Lung). Format: cell-based, human. The protocol: as §6
Series [3] deals with A-549 (Lung). Format: cell-based, human. The protocol: as §6
For another series, the target named is T2, CDK2-cyclin E (Homo sapiens, UniProt P24941).
T2 construct: made in house; host or cells: Sf9 insect cells (baculovirus)
Put plainly: CDK2/Cyclin E kinase assay (32P phosphorylation of GST-Rb, filter plate). As to conditions: 30 min at 30° C.; GST-Rb substrate. In kind it is biochemical.
Text: as §1, §2, §3, §4, §5
The CDK4 or CDK2 enzyme assay was run in 96-well format using Millipore ultiscreen filtration plates. All assay steps took place in a single filter plate (Unifilter plates, Packard, USA). The filtration wells were pre-wet with kinase buffer (100 μl/well) and the solution was then removed by the application of vacuum, with the filter plate on a vacuum manifold and the vacuum on. 50 μl of GST-Rb bound to GSH-Sepharose beads in kinase buffer (0.5 μg GST-Rb/50 μl) was added to each well and vacuum was applied to remove the buffer. A further 25 μl of a reaction mix containing ATP (cold+hot) and phosphatase inhibitors diluted in kinase buffer were added to each well, followed by the addition of test compound (4× final concentration in kinase buffer) or kinase buffer (control) in an additional 25 μl volume. Finally 50 μl (100 ng) of human CDK-4/D1 or CDK-2/E enzyme in kinase buffer was added to each well to initiate the reaction. The reaction was incubated for 30 min at 30° C. After the reaction was complete, vacuum was applied and the plate was washed with the wash buffer (TNEN buffer) three times. The filter plate was air-dried and placed in a Multiscreen adapter plate. To each well, 30 μl Packard Microscint-O cocktail was added and the plate was covered with a Top-Seal A film. The plate was counted in a Packard Top Count Scintillation Counter for 10 min. […]

The test system of series [4] is HT-29 (Colon). Put plainly: In vitro cell proliferation, 3H-Thymidine uptake assay. Format: cell-based, human. As to conditions: cells harvested after 72 hours. Here is the method:
as §6

Series [5] has as its system Calu1 (Lung). The description is as above. Format: cell-based, human. As to conditions: cells harvested after 72 hours. Here is the method:
as §6

Series [6] deals with A-549 (Lung). The series is described as above. In kind it is cell-based, human. As to conditions: cells harvested after 72 hours. The protocol:
as §6

T1 sequence (P11802 whole entry): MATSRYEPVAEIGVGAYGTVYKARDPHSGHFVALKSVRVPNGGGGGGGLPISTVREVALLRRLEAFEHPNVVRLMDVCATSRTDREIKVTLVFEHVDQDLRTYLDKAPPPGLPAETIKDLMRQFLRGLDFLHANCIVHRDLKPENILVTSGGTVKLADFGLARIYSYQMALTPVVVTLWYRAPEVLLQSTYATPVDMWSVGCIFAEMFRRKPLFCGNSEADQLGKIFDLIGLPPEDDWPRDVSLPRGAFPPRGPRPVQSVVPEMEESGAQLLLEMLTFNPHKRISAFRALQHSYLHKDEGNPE
T1 sequence (P24385 whole entry partner): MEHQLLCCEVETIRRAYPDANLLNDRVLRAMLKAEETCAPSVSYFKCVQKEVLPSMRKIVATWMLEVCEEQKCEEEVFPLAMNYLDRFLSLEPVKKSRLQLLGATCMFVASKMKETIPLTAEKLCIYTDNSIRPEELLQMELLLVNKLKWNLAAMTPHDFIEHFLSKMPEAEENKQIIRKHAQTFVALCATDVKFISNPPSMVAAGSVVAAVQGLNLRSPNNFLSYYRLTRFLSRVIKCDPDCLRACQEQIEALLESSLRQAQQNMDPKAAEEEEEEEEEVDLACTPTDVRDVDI

Consider “(+)-trans-2-(2-Chlorophenyl)-5,7-dihydroxy-8-(2-hydroxymethyl-1-methyl-pyrrolidin-3-yl)-chromen-4-one hydrochloride [Example 10]”, for which the IC50 against CDK4-cyclin D1 turned out to be 0.065 µM; with HT-29 (Colon) [1], 0.58 µM; in the series with Calu1 (Lung) [2] it was 0.88 µM; with A-549 (Lung) [3], 0.7 µM; against CDK2-cyclin E it was 2.8 µM; in the series on HT-29 (Colon) [4] it was 0.68 µM. Besides, the 50% inhibitory concentration (IC50) is less than 0.3 µM in the series with Calu1 (Lung) [5] and 0.18 µM with A-549 (Lung) [6].

With `COc1cc(OC)c2c(=O)cc(-c3ccccc3Cl)oc2c1[C@@H]1CCN(C)[C@H]1CO`, the melting point lay in the range of 91 to 93 °C.

As for “(−)-trans-2-(2-Chlorophenyl)-5,7-dihydroxy-8-(2-hydroxymethyl-1-methyl pyrrolidin-3-yl)-chromen-4-one hydrochloride [Example 96-(F)]”, the half-maximal inhibitory concentration (IC50) with HT-29 (Colon) [1] was determined as 17.9 µM; in the series on Calu1 (Lung) [2], 16.3 µM; with A-549 (Lung) [3], 16 µM; on CDK2-cyclin E it was 21 µM; in the series with HT-29 (Colon) [4], 25 µM; in the series on A-549 (Lung) [6], 10 µM.

Regarding “(+)-trans-2-(2-Chloro-4-nitrophenyl)-5,7-dihydroxy-8-(2-hydroxymethyl-1-methylpyrrolidin-3-yl)-chromen-4-one hydrochloride [Example 50]”, the concentration for half-maximal inhibition (IC50) against CDK4-cyclin D1 worked out at 0.045 µM; in the series on HT-29 (Colon) [1], 1.1 µM; in the series on Calu1 (Lung) [2] it was 1.4 µM; in the series with A-549 (Lung) [3] it was 1.2 µM; against CDK2-cyclin E, 1.7 µM; with HT-29 (Colon) [4], 1.5 µM. Also, the IC50 in the series with Calu1 (Lung) [5] is less than 0.3 µM; in the series with A-549 (Lung) [6], 1.2 µM.

For the compound `CN1CC[C@@H](c2c(O)cc(O)c3c(=O)cc(-c4cc(F)ccc4Cl)oc23)[C@@H]1CO`, the melting point was in the range of 253 to 254 °C.

As to “(−)-trans-2-(2-Chloro-4-nitrophenyl)-5,7-dihydroxy-8-(2-hydroxymethyl-1-methylpyrrolidin-3-yl)-chromen-4-one hydrochloride [Example 97-(D)]”, the half-maximal inhibitory concentration (IC50) was 1 µM on CDK4-cyclin D1, greater than 10 µM at CDK2-cyclin E and 10 µM in the series on HT-29 (Colon) [4].
